Values joined by “and” are separate entries in the source; they are usually repeats but may differ in a detail not shown here. Equal values may be shown once.
Legend:
[1] = test system: rats; assay: Von Frey assay (VFA) withdrawal threshold in formalin-induced rat pain model; type: in vivo; details: contra-lateral paw; single 10 mg/kg IV administration
Source text: (§1) Chronic pain in rats was induced by injection of formalin into the hind paw. The rats subsequently were intravenously administered psilocybin, and assessed for changes in pain perception over an extended period of time. The formalin pain model is a translational animal model for chronic nociplastic pain (Vanini G., Sleep 2016; 39(1): 133-42), including fibromyalgia, phantom limb pain or complex regional pain syndrome. In the formalin pain model, in addition to experiencing extra pain in the formalin-injected paw, the animal experiences increased pain perception (i.e., hyperalgesia) in extremities not injected with formalin (e.g., the contra-lateral hind paw compared to the one injected with formalin). The pain perception was measured in the contra-lateral paw to assess the potential benefit of psychedelics in nociplastic pain disorders. Reduction in pain perception and the duration of pain reduction were examined following intravenous bolus administration of 10 mg/kg psilocybin, administered over 3 minutes.
Two types of pain perception were measured. First, the Von Frey assay (VFA) was used to measure pain due to pressure exerted on the extremity (i.e., mechanical allodynia). Specifically. […] The minimum amount of force required to evoke a paw withdrawal response in each trial was determined to be the minimum withdrawal threshold for that animal trial. […]

[2] = test system: rats; assay: Head twitching response (HTR) after one-hour intravenous infusion, video recording; type: in vivo, Sprague Dawley rats; details: for Time after termination of infusion up to which head twitching was observed: after one hour 10 mg/kg IV infusion
Procedure: To assess the pharmacodynamics (PD) of intravenously infused psychedelics, animal head-twitching was recorded as an indicator of achieving the dissociative state. Head twitching response (HTR) is used as a surrogate PD marker for the animals achieving or being in the dissociative or psychedelic state (for example, as described in Zhuk et al., Toxins 2015, 7, 1018-1029; Halberstadt et al., J Psychopharmacol. 2011 25(11): 1548-1561). HTR was also used to determine when the end of the dissociative state occurred following discontinuation of the IV infusion.
To assess HTR, a video monitoring system was used to record the animals in this study from discontinuation of the infusion through to the terminal sampling time point (1-hour post infusion). A camera was positioned such that the animals were visible from above. The recording was saved for review and the time of the observed head-twitching behavior, the duration of the observed behavior, and any additional atypical observations were documented.
The number of head-twitching events observed within the 60 minute time period after the one hour intravenous infusion of each of the 3 rats receiving psilocin or psilocybin, were determined from the video recordings. […] Upon termination of the IV infusion of either psilocin or psilocybin, head twitching activity subsided within 50 minutes, supporting the rapid termination of the dissociative or psychedelic, compared to previously reported termination of the dissociative state after an oral administration of psilocybin.

[3] = single oral administration of psilocybin at 0.225 mg/kg; cited from earlier work
[4] = test system: rats; assay: Hot Plate assay (HPA) withdrawal latency in formalin-induced rat pain model; type: in vivo; details: 52.5° C. hot plate; single 10 mg/kg IV administration
Source text: as §1, with “Reduction in pain perception and the duration of pain reduction were examined following intravenous bolus administration of 10 mg/kg psilocybin, administered over 3 minutes.” left out
The second pain measurement was based on the Hot Plate Assay (HPA), which measures the withdrawal latency at temperatures that register a painful response (i.e., thermal hyperalgesia). […] Once heated, each animal was placed in cylindrical tube on the hot plate and the latency to lick a hind paw or observed overt escape behavior (e.g., attempt to jump out of cylinder) was recorded (Ingram et al., Neruopsychopharmacology 2007; 32(3):600-6; Gunn et al., J Pain 2011; 12(2):222-7; Hestehave et al., Lab Anim 2016; 51(3):264-72). […]

[5] = test system: rats; assay: Head twitching response in unrestrained rats prior to, during and after 60 minute infusion (separate study); type: in vivo; details: 10 mg/kg over 60 minutes IV
Procedure: In a separate study, unrestrained rats were infused with 10 mg/kg psilocybin over a 60 minute period and head twitching response (HTR) was recorded prior to during and after IV administration. HTR was consistently observed in all tested rats, within 5 minutes after initiation of the infusion, and persisted during the 60-minute infusion period. HTR was discontinued in the animals soon after the termination of the infusion, generally within 30 minutes after the termination of the infusion. The results of the HTR supported the more rapid achievement of the dissociative or psychedelic state, coincident with the rise in systemic plasma psilocin levels, and rapid exit from the dissociative or psychedelic state after the termination of infusion (e.g., as assessed in Example 1).

[6] = Plasma psilocin pharmacokinetics during and after one-hour intravenous infusion of psilocin or psilocybin; details: for AUC(0-t): AUCT; for concentration at 0.25 h / concentration at 0.5 h / concentration at 1 h / concentration at 2 h / concentration at 4 h / concentration at 6 h / concentration at 8 h: Plasma concentration of psilocin
[7] = plasma psilocin, individual rats, 10 mg/kg psilocin one-hour IV infusion

CN(C)CCc1c[nH]c2cccc(OP(=O)(O)O)c12 [psilocybin, [3-(2-dimethylaminoethyl)-1H-indol-4-yl] dihydrogen phosphate]
Duration of statistically significant increase in VFA withdrawal threshold [1]: 3 weeks
Time after termination of infusion up to which head twitching was observed [2]: up to 50 minutes
Average peak concentration of psilocin in plasma [3]: 8.2+/−2.8 ng psilocin/ml plasma
Time of peak plasma levels of psilocin [3]: 105 ± 37 min
Duration of improved pain sensitivity response (HPA withdrawal latency) compared to saline control [4]: at least 4 weeks
Time to discontinuation of head twitching response after termination of the infusion [5]: ≤ 30 min
Time to head twitching response after initiation of the infusion ([5]; all tested rats): ≤ 5 min

CN(C)CCc1c[nH]c2cccc(O)c12 [psilocin, 4-hydroxy-N,N-dimethyltryptamine]
Rats in which head-twitching was observed ([2]; 60 minute period after one hour 10 mg/kg IV infusion): 2 of 3
Time after termination of infusion up to which head twitching was observed [2]: ≤ 16 min
Plasma concentration of psilocin ([6]; individual rats, 10 mg/kg psilocin one-hour IV infusion, sampling time 0.25 h): 1031.8 ng/mL and 982.7 ng/mL
Plasma concentration of psilocin ([6]; individual rats, 10 mg/kg psilocin one-hour IV infusion, sampling time 0.5 h): 1731.6 ng/mL and 1489.3 ng/mL
Plasma concentration of psilocin ([6]; individual rats, 10 mg/kg psilocin one-hour IV infusion, sampling time 1 h): 2159.5 ng/mL and 1623.2 ng/mL
Plasma concentration of psilocin ([6]; individual rats, 10 mg/kg psilocin one-hour IV infusion, sampling time 2 h): 965.6 ng/mL and 740.4 ng/mL
Plasma concentration of psilocin ([6]; individual rats, 10 mg/kg psilocin one-hour IV infusion, sampling time 4 h): 249.1 ng/mL and 231.7 ng/mL
Plasma concentration of psilocin ([6]; individual rats, 10 mg/kg psilocin one-hour IV infusion, sampling time 6 h): 80.2 ng/mL and 59.6 ng/mL
Plasma concentration of psilocin ([6]; individual rats, 10 mg/kg psilocin one-hour IV infusion, sampling time 8 h): 22.5 ng/mL and 26.8 ng/mL
Tmax ([6]; male, Sprague Dawley, rat, plasma, iv, 10 mg/kg): 1 h
AUC(0-t) ([6]; male, Sprague Dawley, rat, plasma, iv, 10 mg/kg, plasma psilocin, individual rats, 10 mg/kg psilocin one-hour IV infusion): 3550 ng·h/mL
AUC(0-t) ([6]; male, Sprague Dawley, rat, plasma, iv, 10 mg/kg, plasma psilocin, mean of 3 rats, 10 mg/kg psilocin one-hour IV infusion): 3980 ng·h/mL
Cmax ([6]; male, Sprague Dawley, rat, plasma, iv, 10 mg/kg, Cmax, plasma psilocin, individual rats, 10 mg/kg psilocin one-hour IV infusion): 1610 ng/mL
Cmax ([6]; male, Sprague Dawley, rat, plasma, iv, 10 mg/kg, Cmax, plasma psilocin, mean of 3 rats, 10 mg/kg psilocin one-hour IV infusion): 1800 ng/mL
concentration at 0.25 h ([6]; male, Sprague Dawley, rat, plasma, iv, 10 mg/kg, individual rats, 10 mg/kg psilocin one-hour IV infusion, sampling time 0.25 h): 1070 ng/mL
concentration at 0.5 h ([6]; male, Sprague Dawley, rat, plasma, iv, 10 mg/kg, individual rats, 10 mg/kg psilocin one-hour IV infusion, sampling time 0.5 h): 1510 ng/mL
concentration at 1 h ([6]; male, Sprague Dawley, rat, plasma, iv, 10 mg/kg, individual rats, 10 mg/kg psilocin one-hour IV infusion, sampling time 1 h): 1610 ng/mL
concentration at 2 h ([6]; male, Sprague Dawley, rat, plasma, iv, 10 mg/kg, individual rats, 10 mg/kg psilocin one-hour IV infusion, sampling time 2 h): 714 ng/mL
concentration at 4 h ([6]; male, Sprague Dawley, rat, plasma, iv, 10 mg/kg, individual rats, 10 mg/kg psilocin one-hour IV infusion, sampling time 4 h): 164 ng/mL
concentration at 6 h ([6]; male, Sprague Dawley, rat, plasma, iv, 10 mg/kg, individual rats, 10 mg/kg psilocin one-hour IV infusion, sampling time 6 h): 47.7 ng/mL
concentration at 8 h ([6]; male, Sprague Dawley, rat, plasma, iv, 10 mg/kg, individual rats, 10 mg/kg psilocin one-hour IV infusion, sampling time 8 h): 17.3 ng/mL
concentration at 0.25 h ([6]; male, Sprague Dawley, rat, plasma, iv, 10 mg/kg, mean of 3 rats, 10 mg/kg psilocin one-hour IV infusion, sampling time 0.25 h): 1030 ng/mL
concentration at 0.5 h ([6]; male, Sprague Dawley, rat, plasma, iv, 10 mg/kg, mean of 3 rats, 10 mg/kg psilocin one-hour IV infusion, sampling time 0.5 h): 1580 ng/mL
concentration at 1 h ([6]; male, Sprague Dawley, rat, plasma, iv, 10 mg/kg, mean of 3 rats, 10 mg/kg psilocin one-hour IV infusion, sampling time 1 h): 1800 ng/mL
concentration at 2 h ([6]; male, Sprague Dawley, rat, plasma, iv, 10 mg/kg, mean of 3 rats, 10 mg/kg psilocin one-hour IV infusion, sampling time 2 h): 807 ng/mL
concentration at 4 h ([6]; male, Sprague Dawley, rat, plasma, iv, 10 mg/kg, mean of 3 rats, 10 mg/kg psilocin one-hour IV infusion, sampling time 4 h): 215 ng/mL
concentration at 6 h ([6]; male, Sprague Dawley, rat, plasma, iv, 10 mg/kg, mean of 3 rats, 10 mg/kg psilocin one-hour IV infusion, sampling time 6 h): 62.5 ng/mL
concentration at 8 h ([6]; male, Sprague Dawley, rat, plasma, iv, 10 mg/kg, mean of 3 rats, 10 mg/kg psilocin one-hour IV infusion, sampling time 8 h): 22.2 ng/mL
AUCT [6, 7]: 4656.4 ng·h/mL and 3741.6 ng·h/mL
Cmax [6, 7]: 2159.5 ng/mL and 1623.2 ng/mL

From patent US20240307420A1, “IMPROVED METHODS FOR THE USE OF PSYCHEDELICS” (TRYP Therapeutics Inc., priority 2021, published 2024)
